Assay results: ChEMBL document CHEMBL1125524, “Adenosine A1 antagonists. 2. Structure-activity relationships on diuretic activities and protective effects against acute renal failure” (J Med Chem, 1992)
pKi: −log10 of the molar value.

Tests used:
Rattus norvegicus [1] = test: Ratio of urinary excretion value (Na+ concentration) in treated rats to that in control rats, at a peroral dose of 0.4 mg/Kg; assay type: functional, Urine
Rattus norvegicus [2] = test: Ratio of urinary excretion value (Na+ concentration) in treated rats to that in control rats, at a peroral dose of 1.6 mg/Kg; assay type: functional, Urine
Rattus norvegicus [3] = test: Urea nitrogen concentration measured after intraperitoneal administration of 0.1 mg/kg of compound to rats(vehicle 141.3+/-8.3); assay type: functional
Rattus norvegicus [4] = test: Oral diuretic activity was measured after oral administration of 0.4 mg/kg to rats(control volume is 1.72+/-0.31); assay type: functional, Urine
Rattus norvegicus [5] = test: Effect on urinary excretion potassium and sodium after oral administration of 0.4 mg/kg to rats(potassium and sodium excretion in control rat is 0.267+/-0.044); assay type: functional, Urine
Rattus norvegicus [6] = test: Serum creatinine concentration measured after intraperitoneal administration of 1 mg/kg of compound to rats(vehicle 4.82+/-0.17); assay type: functional
Rattus norvegicus [7] = test: Percent inhibition of Urea nitrogen by the compound given as ratio of UN value in treated to vehicle treated ones after intraperitoneal administration of 0.1 mg/kg of compound to rats(vehicle 141.3+/-8.3); assay type: functional; details: ip
Rattus norvegicus [8] = test: Percent inhibition of Urea nitrogen by the compound given as ratio of UN value in treated to vehicle treated ones after intraperitoneal administration of 0.01 mg/kg of compound to rats(vehicle 130.6+/-4.12); assay type: functional; details: ip
Adenosine A2 receptor = Adenosine A2 receptor (Rattus norvegicus, UniProt P29276+P30543)
Rattus norvegicus [9] = test: Ratio of sodium ion/potassium ion concentration in treated rats to that in control rats, at a peroral dose of 1.6 mg/Kg; assay type: functional
Rattus norvegicus [10] = test: Oral diuretic activity was measured after oral administration of 1.6 mg/kg to rats(control volume is 0.97+/-0.05); assay type: functional, Urine
Rattus norvegicus [11] = test: Percent inhibition of serum creatinine by the compound given as ratio of Cr value in treated to vehicle treated ones after intraperitoneal administration of 0.1 mg/kg of compound to rats(vehicle 3.92+/-0.23); assay type: functional; details: ip
Rattus norvegicus [12] = test: Percent inhibition of serum creatinine by the compound given as ratio of Cr value in treated to vehicle treated ones after intraperitoneal administration of 0.01 mg/kg of compound to rats(vehicle 4.50+/-0.24); assay type: functional; details: ip
Rattus norvegicus [13] = test: Effect on urinary excretion potassium and sodium after oral administration of 1.6 mg/kg to rats(potassium and sodium excretion in control rat is 0.169+/-0.012); assay type: functional, Urine
Rattus norvegicus [14] = test: Ratio of sodium ion/potassium ion concentration in treated rats to that in control rats, at a peroral dose of 0.4 mg/Kg; assay type: functional
Rattus norvegicus [15] = test: Percent inhibition of Urea nitrogen by the compound given as ratio of UN value in treated to vehicle treated ones after intraperitoneal administration of 1 mg/kg of compound to rats(vehicle 151.5+/-7.4); assay type: functional; details: ip
Rattus norvegicus [16] = test: Serum creatinine concentration measured after intraperitoneal administration of 0.01 mg/kg of compound to rats(vehicle 4.50+/-0.24); assay type: functional
Rattus norvegicus [17] = test: Serum creatinine concentration measured after intraperitoneal administration of 0.1 mg/kg of compound to rats(vehicle 3.92+/-0.23); assay type: functional
Rattus norvegicus [18] = test: Percent inhibition of serum creatinine by the compound given as ratio of Cr value in treated to vehicle treated ones after intraperitoneal administration of 1 mg/kg of compound to rats(vehicle 4.82+/-0.17); assay type: functional; details: ip
Rattus norvegicus [19] = test: Urea nitrogen concentration measured after intraperitoneal administration of 1 mg/kg of compound to rats(vehicle 151.5+/-7.4); assay type: functional
Rattus norvegicus [20] = test: Ratio of urinary excretion value (urinary volume) in treated rats to that in control rats, at a peroral dose of 0.4 mg/Kg; assay type: functional, Urine
Rattus norvegicus [21] = test: Urea nitrogen concentration measured after intraperitoneal administration of 0.01 mg/kg of compound to rats(vehicle 130.6+/-4.12); assay type: functional
Rattus norvegicus [22] = test: Ratio of urinary excretion value (urinary volume) in treated rats to that in control rats, at a peroral dose of 1.6 mg/Kg; assay type: functional, Urine
Rattus norvegicus [23] = test: Ratio of urinary excretion value (urinary volume) in treated rats to that in control rats, at a peroral dose of 25 mg/Kg; assay type: functional, Urine
Rattus norvegicus [24] = test: Ratio of urinary excretion value (urinary volume) in treated rats to that in control rats, at a peroral dose of 6.25 mg/Kg; assay type: functional, Urine
Rattus norvegicus [25] = test: Percent inhibition of serum creatinine by the compound given as ratio of Cr value in treated to vehicle treated ones after intraperitoneal administration of 10 mg/kg of compound to rats(vehicle 182.5+/-3.4); assay type: functional; details: ip
Rattus norvegicus [26] = test: Ratio of urinary excretion value (Na+ concentration) in treated rats to that in control rats, at a peroral dose of 25 mg/Kg; assay type: functional, Urine
Rattus norvegicus [27] = test: Oral diuretic activity was measured after oral administration of 1.6 mg/kg to rats(control volume is 0.69+/-0.03); assay type: functional, Urine
Rattus norvegicus [28] = test: Urea nitrogen concentration measured after intraperitoneal administration of 10 mg/kg of compound to rats(vehicle 182.5+/-3.4); assay type: functional
Rattus norvegicus [29] = test: Effect on urinary excretion potassium and sodium after oral administration of 25 mg/kg to rats(potassium and sodium excretion in control rat is 0.193+/-0.016); assay type: functional, Urine
Rattus norvegicus [30] = test: Percent inhibition of Urea nitrogen by the compound given as ratio of UN value in treated to vehicle treated ones after intraperitoneal administration of 10 mg/kg of compound to rats(vehicle 182.5+/-3.4); assay type: functional; details: ip
Rattus norvegicus [31] = test: Oral diuretic activity was measured after oral administration of 25 mg/kg to rats(control volume is 0.91+/-0.08); assay type: functional, Urine
Rattus norvegicus [32] = test: Effect on urinary excretion potassium and sodium after oral administration of 1.6 mg/kg to rats(potassium and sodium excretion in control rat is 0.079+/-0.007); assay type: functional, Urine
Rattus norvegicus [33] = test: Ratio of sodium ion/potassium ion concentration in treated rats to that in control rats, at a peroral dose of 25 mg/Kg; assay type: functional
Rattus norvegicus [34] = test: Ratio of urinary excretion value (Na+ concentration) in treated rats to that in control rats, at a peroral dose of 6.25 mg/Kg; assay type: functional, Urine
Rattus norvegicus [35] = test: Serum creatinine concentration measured after intraperitoneal administration of 10 mg/kg of compound to rats(vehicle 5.43+/-0.11); assay type: functional

For CC(C)Cn1c(=O)n(C)c(=O)c2[nH]c(C34CC5CC(CC3C5)C4)nc21, the T/C (Rattus norvegicus [1]) was 1.38, the T/C (Rattus norvegicus [2]) was 2.43 and the UN (Rattus norvegicus [3]) was 70.9 mg/dL. It also gave a Urine volume (Rattus norvegicus [4]) of 2.41 ml 6hr-1 100g-1, a Na (Rattus norvegicus [5]) of 0.367 m equiv 6hr-1 100g-1 and a Cr (Rattus norvegicus [6]) of 2.76 mg/dL. It also gave an inhibition in vivo at 0.1 mg/kg (Rattus norvegicus [7]) of 50%, an inhibition in vivo at 0.01 mg/kg (Rattus norvegicus [8]) of 12% and a pKi (Adenosine A2 receptor) of 6.07. For the same molecule, the “Na+/K+” value (Rattus norvegicus [9]) was 1.73, the Urine volume (Rattus norvegicus [10]) was 2.43 ml 6hr-1 100g-1 and the inhibition in vivo at 0.1 mg/kg (Rattus norvegicus [11]) was 48%. For the same molecule, the inhibition in vivo at 0.01 mg/kg (Rattus norvegicus [12]) was 25%, the Na (Rattus norvegicus [13]) was 0.409 m equiv 6hr-1 100g-1 and the “Na+/K+” value (Rattus norvegicus [14]) was 1.37. For the same molecule, the inhibition in vivo at 1 mg/kg (Rattus norvegicus [15]) was 51%, the Cr (Rattus norvegicus [16]) was 3.38 mg/dL and the Cr (Rattus norvegicus [17]) was 2.04 mg/dL. The inhibition in vivo at 1 mg/kg (Rattus norvegicus [18]) was 42%, the UN (Rattus norvegicus [19]) was 74 mg/dL and the T/C (Rattus norvegicus [20]) was 1.4. The UN (Rattus norvegicus [21]) was 115.5 mg/dL and the T/C (Rattus norvegicus [22]) was 2.51.
Cn1c(=O)c2nc[nH]c2n(C)c1=O.O [THEOPHYLLINE] showed a T/C (Rattus norvegicus [23]) of 1.34, a T/C (Rattus norvegicus [24]) of 1.42 and an inhibition in vivo at 10 mg/kg (Rattus norvegicus [25]) of 2%. It also gave a T/C (Rattus norvegicus [2]) of 1.14, a T/C (Rattus norvegicus [26]) of 2.16 and a Urine volume (Rattus norvegicus [27]) of 0.71 ml 6hr-1 100g-1. For the same molecule, the UN (Rattus norvegicus [28]) was 174 mg/dL, the Na (Rattus norvegicus [29]) was 0.417 m equiv 6hr-1 100g-1 and the “Na+/K+” value (Rattus norvegicus [9]) was 1.06. The inhibition in vivo at 10 mg/kg (Rattus norvegicus [30]) was 5%, the Urine volume (Rattus norvegicus [31]) was 1.22 ml 6hr-1 100g-1 and the Na (Rattus norvegicus [32]) was 0.09 m equiv 6hr-1 100g-1. For the same molecule, the T/C (Rattus norvegicus [22]) was 1.03, the “Na+/K+” value (Rattus norvegicus [33]) was 1.08 and the T/C (Rattus norvegicus [34]) was 1.52. For the same molecule, the Cr (Rattus norvegicus [35]) was 5.32 mg/dL.
